This note sets out measurements from patent publication US12358886B2, “Heterocyclic compounds for use in the treatment of cancer” (Artios Pharma Limited, priority 2019, dated 2025).

Molecules are shown by their SMILES.

Chain of Polθ protein (amino acids 2-2590) (O75417 2-2590): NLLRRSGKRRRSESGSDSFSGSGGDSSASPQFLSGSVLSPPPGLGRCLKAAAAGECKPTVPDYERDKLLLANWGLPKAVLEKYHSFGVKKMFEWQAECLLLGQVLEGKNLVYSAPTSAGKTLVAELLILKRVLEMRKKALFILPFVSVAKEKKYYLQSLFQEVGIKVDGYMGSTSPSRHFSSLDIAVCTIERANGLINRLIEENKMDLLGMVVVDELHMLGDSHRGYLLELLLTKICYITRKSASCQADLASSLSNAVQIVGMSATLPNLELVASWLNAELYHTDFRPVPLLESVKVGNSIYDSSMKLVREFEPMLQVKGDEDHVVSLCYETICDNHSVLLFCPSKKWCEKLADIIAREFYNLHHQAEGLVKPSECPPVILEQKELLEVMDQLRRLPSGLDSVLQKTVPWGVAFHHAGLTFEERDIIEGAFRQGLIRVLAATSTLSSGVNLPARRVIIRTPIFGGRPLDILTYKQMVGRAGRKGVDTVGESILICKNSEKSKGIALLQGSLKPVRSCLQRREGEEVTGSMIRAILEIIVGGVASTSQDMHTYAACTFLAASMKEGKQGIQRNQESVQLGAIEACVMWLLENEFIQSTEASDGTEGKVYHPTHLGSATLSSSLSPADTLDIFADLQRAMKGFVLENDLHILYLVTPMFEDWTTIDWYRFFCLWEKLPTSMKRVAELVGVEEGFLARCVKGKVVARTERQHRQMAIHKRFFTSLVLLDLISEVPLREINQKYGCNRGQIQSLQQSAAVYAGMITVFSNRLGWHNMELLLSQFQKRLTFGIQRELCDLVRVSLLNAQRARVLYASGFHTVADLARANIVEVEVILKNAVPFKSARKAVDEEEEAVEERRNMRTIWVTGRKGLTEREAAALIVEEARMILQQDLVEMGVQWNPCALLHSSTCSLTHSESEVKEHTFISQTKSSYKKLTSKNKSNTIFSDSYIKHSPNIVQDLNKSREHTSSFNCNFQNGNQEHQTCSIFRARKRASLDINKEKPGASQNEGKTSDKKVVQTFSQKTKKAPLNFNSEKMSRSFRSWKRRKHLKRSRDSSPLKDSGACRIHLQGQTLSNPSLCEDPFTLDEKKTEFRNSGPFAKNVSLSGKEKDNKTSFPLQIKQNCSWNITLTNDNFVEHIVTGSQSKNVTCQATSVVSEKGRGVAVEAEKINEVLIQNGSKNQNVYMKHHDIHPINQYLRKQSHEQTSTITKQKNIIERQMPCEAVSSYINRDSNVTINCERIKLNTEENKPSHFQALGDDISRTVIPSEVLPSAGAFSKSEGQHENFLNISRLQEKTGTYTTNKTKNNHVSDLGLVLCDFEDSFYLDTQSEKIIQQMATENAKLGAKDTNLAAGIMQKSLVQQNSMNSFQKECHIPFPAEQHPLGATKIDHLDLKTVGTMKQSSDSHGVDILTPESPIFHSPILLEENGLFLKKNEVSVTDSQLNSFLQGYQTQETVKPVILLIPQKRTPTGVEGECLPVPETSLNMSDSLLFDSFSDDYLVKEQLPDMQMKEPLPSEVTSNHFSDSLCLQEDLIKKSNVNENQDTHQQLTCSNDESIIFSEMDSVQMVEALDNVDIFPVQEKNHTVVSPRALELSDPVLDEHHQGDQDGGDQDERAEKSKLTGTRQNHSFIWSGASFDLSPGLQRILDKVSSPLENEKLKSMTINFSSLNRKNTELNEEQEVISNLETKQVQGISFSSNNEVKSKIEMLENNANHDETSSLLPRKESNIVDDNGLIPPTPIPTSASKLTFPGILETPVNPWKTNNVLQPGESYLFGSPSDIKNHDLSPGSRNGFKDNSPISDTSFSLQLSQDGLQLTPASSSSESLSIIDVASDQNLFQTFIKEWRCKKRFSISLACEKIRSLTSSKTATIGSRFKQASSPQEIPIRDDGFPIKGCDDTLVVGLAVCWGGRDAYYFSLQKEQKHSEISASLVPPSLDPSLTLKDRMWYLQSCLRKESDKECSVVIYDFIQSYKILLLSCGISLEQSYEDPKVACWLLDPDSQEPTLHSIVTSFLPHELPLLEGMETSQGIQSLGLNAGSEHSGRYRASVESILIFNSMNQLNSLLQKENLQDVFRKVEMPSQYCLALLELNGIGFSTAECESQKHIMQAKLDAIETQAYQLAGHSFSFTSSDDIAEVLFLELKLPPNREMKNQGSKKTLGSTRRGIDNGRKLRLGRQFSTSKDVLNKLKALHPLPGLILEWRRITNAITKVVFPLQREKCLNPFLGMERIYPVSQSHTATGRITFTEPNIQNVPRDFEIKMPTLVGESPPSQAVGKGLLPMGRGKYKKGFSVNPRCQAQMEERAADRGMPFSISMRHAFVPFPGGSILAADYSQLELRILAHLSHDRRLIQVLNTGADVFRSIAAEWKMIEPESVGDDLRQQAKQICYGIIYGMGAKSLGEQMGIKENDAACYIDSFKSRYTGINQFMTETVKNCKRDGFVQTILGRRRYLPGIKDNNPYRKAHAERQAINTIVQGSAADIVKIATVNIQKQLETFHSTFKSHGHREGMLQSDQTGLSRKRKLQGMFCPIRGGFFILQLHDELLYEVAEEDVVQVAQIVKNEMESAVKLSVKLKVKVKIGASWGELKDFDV

This assay has as its target Polθ protein (amino acids 2-2590) (Homo sapiens, UniProt O75417). Kind of assay: Polθ full length enzyme potency assay (PicoGreen). The following applies: Polθ IC50 (nM), full length N-His, C-term FLAG tagged Polθ, PicoGreen fluorescence, 12 point concentration response.
As a reminder, the IC50 is the concentration at which inhibition is half-maximal. High values mean weaker potency, low ones greater potency. For `Cc1cc(C(F)(F)F)c(C#N)c(N2C[C@@H](O)C[C@H]2C(=O)N(C)c2ccc(Cl)c(F)c2)n1` [Example 18, (2S,4S)-N-(4-Chloro-3-fluorophenyl)-1-(3-cyano-6-methyl-4-(trifluoromethyl)pyridin-2-yl)-4-hydroxy-N-methyl-pyrrolidine-2-carboxamide], the midpoint of inhibition, the IC50, lay at 33 nM.
`Cc1cc(C(F)(F)F)cc(N2C(=O)OC[C@H]2C(=O)N(C)c2ccc(C)c(O)c2)n1` [Example 105, (S)—N-(3-Hydroxy-4-methylphenyl)-N-methyl-3-(6-methyl-4-(trifluoromethyl)pyridin-2-yl)-2-oxooxazolidine-4-carboxamide] yielded an IC50 of 19 nM.
In turn, `CCN(C(=O)[C@@H]1C[C@H](N[C@@H]2CCC[C@H]2O)CN1c1cc(C(F)(F)F)cc(C)n1)c1ccc(F)c(F)c1` [Example 133, (2S,4S)-N-(3,4-Difluorophenyl)-N-ethyl-4-(((1R,2R)-2-hydroxycyclopentyl)amino)-1-(6-methyl-4-(trifluoromethyl)pyridin-2-yl)pyrrolidine-2-carboxamide] gave an IC50 of 122 nM.
`CCN(C(=O)[C@@H]1C[C@H](O)CN1c1nc(C)cc(C(F)(F)F)n1)c1ccc(F)c(Cl)c1` [Example 64, (2S,4S)—N-(3-Chloro-4-fluorophenyl)-N-ethyl-4-hydroxy-1-(4-methyl-6-(trifluoromethyl)-pyrimidin-2-yl)pyrrolidine-2-carboxamide]: the half-maximal inhibitory concentration (IC50) was determined as 166 nM.
The value for `Cc1cc(C(F)(F)F)cc(N2C(=O)N(CCN3CCCC3CO)C[C@H]2C(=O)N(C)c2ccc(F)c(Cl)c2)n1` (single isomer, unassigned; isomer 1) [Example 198] was 28 nM.
`CC(=O)N1CCN(CCCN2C[C@@H](C(=O)N(C)c3ccc(F)c(Cl)c3F)N(c3cc(C(F)(F)F)cc(C)n3)C2=O)CC1` [Example 221, (S)-1-(3-(4-Acetylpiperazin-1-yl)propyl)-N-(3-chloro-2,4-difluorophenyl)-N-methyl-3-(6-methyl-4-(trifluoromethyl)pyridin-2-yl)-2-oxoimidazolidine-4-carboxamide] registered an IC50 of 11 nM.
For `C=Cc1c(F)ccc(N(C)C(=O)[C@@H]2COC(=O)N2c2cc(C(F)(F)F)cc(C)n2)c1F` [Example 107, (S)—N-(2,4-Difluoro-3-vinylphenyl)-N-methyl-3-(6-methyl-4-(trifluoromethyl)pyridin-2-yl)-2-oxooxazolidine-4-carboxamide], the midpoint of inhibition, the IC50, lay at 18 nM.
The value for `Cc1cc(C(F)(F)F)cc(N2C(=O)[C@@H](O)[C@@H](O)[C@H]2C(=O)N(C)c2ccc3c(n2)N(C)CCO3)n1` [Example 169, (2S,3S,4S)-3,4-Dihydroxy-N-methyl-N-(4-methyl-3,4-dihydro-2H-pyrido[3,2-b][1,4]oxazin-6-yl)-1-(6-methyl-4-(trifluoromethyl)pyridin-2-yl)-5-oxopyrrolidine-2-carboxamide] was 106 nM.
In the case of `Cc1cc(C(F)(F)F)cc(N2C(=O)[C@H](CN(C)C)C[C@@H]2C(=O)N(C)c2ccc(F)c(Cl)c2)n1` (stereo in doubt) [Example 78, (2R,4S)—N-(3-Chloro-4-fluorophenyl)-4-((dimethylamino)methyl)-N-methyl-1-(6-methyl-4-(trifluoromethyl)pyridin-2-yl)-5-oxopyrrolidine-2-carboxamide], half-maximal inhibition (IC50) was put at 48 nM.
The value for `Cc1cccc(N(C)C(=O)[C@@H]2[C@H](O)CCN2c2nc(C)cc(C(F)(F)F)c2C#N)c1` [Example 24, (2S,3R)-1-(3-Cyano-6-methyl-4-(trifluoromethyl)pyridin-2-yl)-3-hydroxy-N-methyl-N-(m-tolyl)pyrrolidine-2-carboxamide] was 9 nM; that for `Cc1cc(C(F)(F)F)cc(N2C(=O)N(CCS(C)(=N)=O)C[C@H]2C(=O)N(C)c2ccc(F)c(Cl)c2F)n1` (stereo partly drawn) [Example 212, (4S)—N-(3-Chloro-2,4-difluorophenyl)-N-methyl-3-(6-methyl-4-(trifluoromethyl)pyridin-2-yl)-1-(2-(S-methylsulfonimidoyl)ethyl)-2-oxoimidazolidine-4-carboxamide] was 6 nM.
The value for `Cc1cc(C(F)(F)F)cc(N2C(=O)N(CC(=O)N(C)C)C[C@H]2C(=O)N(C)c2ccc(F)c(Cl)c2)n1` [Example 185, (S)-N-(3-Chloro-4-fluorophenyl)-1-(2-(dimethylamino)-2-oxoethyl)-N-methyl-3-(6-methyl-4-(trifluoromethyl)pyridin-2-yl)-2-oxoimidazolidine-4-carboxamide] was 10 nM; that for `Cc1cc(C(F)(F)F)cc(N2C(=O)[C@@H](CO)C[C@H]2C(=O)N(C)c2ccc(F)c(Cl)c2)n1` [Example 77, (2S,4R)—N-(3-Chloro-4-fluorophenyl)-4-(hydroxymethyl)-N-methyl-1-(6-methyl-4-(trifluoromethyl)pyridin-2-yl)-5-oxopyrrolidine-2-carboxamide] was 11 nM.
The value for `Cc1cc(C)c(C#N)c(N2C[C@@H](O)C[C@H]2C(=O)N(C)c2ccc(F)c(C(F)(F)F)c2)n1` [Example 10, (2S,4S)-1-(3-Cyano-4,6-dimethylpyridin-2-yl)-N-(4-fluoro-3-(trifluoromethyl)phenyl)-4-hydroxy-N-methylpyrrolidine-2-carboxamide] was 316 nM; that for `Cc1cc(C(F)(F)F)cc(N2C(=O)OC[C@H]2C(=O)N(C)c2ccc(Br)c(Cl)c2)n1` [Example 172, (S)-N-(4-Bromo-3-chlorophenyl)-N-methyl-3-(6-methyl-4-(trifluoromethyl)pyridin-2-yl)-2-oxooxazolidine-4-carboxamide] was 20 nM; that for `CCc1cc(N(C)C(=O)[C@@H]2COC(=O)N2c2cc(C(F)(F)F)cc(C)n2)ccc1F` [Example 110, (S)—N-(3-Ethyl-4-fluorophenyl)-N-methyl-3-(6-methyl-4-(trifluoromethyl)pyridin-2-yl)-2-oxo-oxazolidine-4-carboxamide] was 21 nM.
As for `Cc1cc(C(F)(F)F)cc(N2C(=O)N(CC3(O)CCNC3)C[C@H]2C(=O)N(C)c2ccc(F)c(Cl)c2F)n1` (stereo partly drawn) [Example 222, (4S)—N-(3-Chloro-2,4-difluorophenyl)-1-((3-hydroxypyrrolidin-3-yl)methyl)-N-methyl-3-(6-methyl-4-(trifluoromethyl)pyridin-2-yl)-2-oxoimidazolidine-4-carboxamide], the midpoint of inhibition, the IC50, lay at 9 nM.
Turning to `Cc1cc(C(F)(F)F)cc(N2C(=O)[C@@H](O)[C@@H](O)[C@H]2C(=O)N(C)c2cc(F)cc(Cl)c2)n1` [Example 68, (2S,3S,4S)-N-(3-Chloro-5-fluoro-phenyl)-3,4-dihydroxy-N-methyl-1-(6-methyl-4-(trifluoromethyl)pyridin-2-yl)-5-oxopyrrolidine-2-carboxamide], the IC50 worked out at 31 nM.
`Cc1cccc(N(C)C(=O)[C@@H]2C[C@H](O)CN2c2nc(N(C)C)cc(C(F)(F)F)c2C#N)c1` [Example 32, (2S,4S)-1-(3-Cyano-6-(dimethylamino)-4-(trifluoromethyl)pyridin-2-yl)-4-hydroxy-N-methyl-N-(m-tolyl)pyrrolidine-2-carboxamide] showed an IC50 of 209 nM.
Regarding `CCN(C(=O)[C@@H]1C[C@H](N(C)C2CNC(=O)C2)CN1c1cc(C(F)(F)F)cc(C)n1)c1ccc(F)c(F)c1` (stereo partly drawn) [Example 145, (2S,4S)-N-(3,4-Difluorophenyl)-N-ethyl-4-(methyl(5-oxopyrrolidin-3-yl)amino)-1-(6-methyl-4-(trifluoromethyl)pyridin-2-yl)pyrrolidine-2-carboxamide], the IC50 was found to be 708 nM.
